Where “and” joins values, the source holds several entries; their conditions need not be identical. Identical values can stand only once.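 Five concentrations, 48 hours, 96-well plates. Abbreviation: GI50, concentration required for 50% inhibition of growth. TGI: concentration producing complete growth inhibition.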
Tests used:
Assay in all cases: DTP human tumour cell line panel, 48 h
M14 melanoma = test system: M14 melanoma
SK-MEL-5 melanoma = test system: SK-MEL-5 melanoma
786-0 renal = test system: 786-0 renal
COLO 205 colon = test system: COLO 205 colon
PC-3 prostate = test system: PC-3 prostate
NCI-H226 lung = test system: NCI-H226 lung
BT-549 breast = test system: BT-549 breast
SF-295 CNS = test system: SF-295 CNS
MDA-MB-231 breast = test system: MDA-MB-231 breast
HT29 colon = test system: HT29 colon
RPMI-8226 leukemia = test system: RPMI-8226 leukemia
CCRF-CEM leukemia = test system: CCRF-CEM leukemia
OVCAR-3 ovarian = test system: OVCAR-3 ovarian
U251 CNS = test system: U251 CNS
SK-OV-3 ovarian = test system: SK-OV-3 ovarian
HCT-116 colon = test system: HCT-116 colon
ACHN renal = test system: ACHN renal
HCC-2998 colon = test system: HCC-2998 colon
SK-MEL-28 melanoma = test system: SK-MEL-28 melanoma
NCI-H522 lung = test system: NCI-H522 lung
SR leukemia = test system: SR leukemia
MCF7 breast = test system: MCF7 breast
OVCAR-4 ovarian = test system: OVCAR-4 ovarian
HS 578T breast = test system: HS 578T breast
NCI-H23 lung = test system: NCI-H23 lung
SF-268 CNS = test system: SF-268 CNS
SN12C renal = test system: SN12C renal
EKVX NSCLC = test system: EKVX NSCLC
MOLT-4 leukemia = test system: MOLT-4 leukemia
UACC-62 melanoma = test system: UACC-62 melanoma
HCT-15 colon = test system: HCT-15 colon
SF-539 CNS = test system: SF-539 CNS
NCI-H460 lung = test system: NCI-H460 lung
T-47D breast = test system: T-47D breast
HOP-92 NSCLC = test system: HOP-92 NSCLC
TK-10 renal = test system: TK-10 renal
RXF 393 renal = test system: RXF 393 renal
DU-145 prostate = test system: DU-145 prostate
KM12 colon = test system: KM12 colon
SNB-19 CNS = test system: SNB-19 CNS
LOX IMVI melanoma = test system: LOX IMVI melanoma
A498 renal = test system: A498 renal
HL-60(TB) leukemia = test system: HL-60(TB) leukemia
SK-MEL-2 melanoma = test system: SK-MEL-2 melanoma
CAKI-1 renal = test system: CAKI-1 renal
HOP-62 NSCLC = test system: HOP-62 NSCLC
SW-620 colon = test system: SW-620 colon
A549 NSCLC = test system: A549 NSCLC
OVCAR-8 ovarian = test system: OVCAR-8 ovarian
NCI/ADR-RES ovarian = test system: NCI/ADR-RES ovarian
UO-31 renal = test system: UO-31 renal
MDA-MB-435 = test system: MDA-MB-435
MALME-3M melanoma = test system: MALME-3M melanoma
IGROV1 ovarian = test system: IGROV1 ovarian
OVCAR-5 ovarian = test system: OVCAR-5 ovarian
K-562 leukemia = test system: K-562 leukemia
UACC-257 melanoma = test system: UACC-257 melanoma
SNB-75 CNS = test system: SNB-75 CNS

SMILES: COc1ccc2c(c1)nnc1c3cccnc3[nH]c21
- GI50 (M14 melanoma): 1070 nM and 3260 nM
- GI50 (SK-MEL-5 melanoma): 5.85 µM and 4.04 µM
- TGI (SK-MEL-5 melanoma): 12.6 µM and 18.9 µM
- GI50 (786-0 renal): 509 nM and 2230 nM
- GI50 (COLO 205 colon): 1130 nM and 735 nM
- TGI (COLO 205 colon): 4.87 µM and 2.31 µM
- GI50 (PC-3 prostate): 1420 nM
- TGI (PC-3 prostate): > 100 µM
- GI50 (NCI-H226 lung): 2.62 µM and 7.87 µM
- TGI (NCI-H226 lung): 11.1 µM and 65.3 µM
- GI50 (BT-549 breast): 3.43 µM and 3.26 µM
- TGI (BT-549 breast): 15 µM and 20.5 µM
- TGI (SF-295 CNS): 11.3 µM and > 100 µM
- GI50 (MDA-MB-231 breast): 1420 nM and 1560 nM
- TGI (MDA-MB-231 breast): 11.4 µM and 6.1 µM
- GI50 (HT29 colon): 751 nM and 541 nM
- GI50 (RPMI-8226 leukemia): 725 nM and 487 nM
- TGI (RPMI-8226 leukemia): 2.98 µM and 5.53 µM
- GI50 (CCRF-CEM leukemia): 37.2 nM
- TGI (CCRF-CEM leukemia): > 100 µM
- GI50 (OVCAR-3 ovarian): 964 nM and 1170 nM
- TGI (OVCAR-3 ovarian): 2.43 µM and 4.09 µM
- GI50 (U251 CNS): 929 nM and 987 nM
- TGI (U251 CNS): 17.3 µM and 10.7 µM
- GI50 (SK-OV-3 ovarian): 2690 nM and 2380 nM
- TGI (SK-OV-3 ovarian): 13.5 µM and 12.5 µM
- GI50 (HCT-116 colon): 209 nM and 146 nM
- GI50 (ACHN renal): 231 nM
- TGI (ACHN renal): > 100 µM
- GI50 (HCC-2998 colon): 8.23 µM and 10 µM
- TGI (HCC-2998 colon): 18.4 µM and 23.8 µM
- GI50 (SK-MEL-28 melanoma): 11.8 µM and 11.2 µM
- TGI (SK-MEL-28 melanoma): 50 µM and > 100 µM
- GI50 (NCI-H522 lung): 1090 nM
- TGI (NCI-H522 lung): 3 µM
- GI50 (SR leukemia): 31.3 nM and 33.6 nM
- GI50 (MCF7 breast): 228 nM and 209 nM
- TGI (MCF7 breast): 966 nM and 1410 nM
- GI50 (OVCAR-4 ovarian): 1410 nM and 2580 nM
- TGI (OVCAR-4 ovarian): 16.2 µM and > 100 µM
- GI50 (HS 578T breast): 3.47 µM and 4.89 µM
- TGI (HS 578T breast): 25.5 µM and 81.2 µM
- GI50 (NCI-H23 lung): 5.5 µM and 3.04 µM
- TGI (NCI-H23 lung): 14.1 µM and 14.9 µM
- GI50 (SF-268 CNS): 733 nM and 365 nM
- TGI (SF-268 CNS): 4.7 µM and 5.65 µM
- GI50 (SN12C renal): 1630 nM and 1680 nM
- TGI (SN12C renal): 7.77 µM and 10.7 µM
- GI50 (EKVX NSCLC): 2.82 µM and 6.62 µM
- TGI (EKVX NSCLC): 50 µM and > 100 µM
- GI50 (MOLT-4 leukemia): 29.9 nM
- TGI (MOLT-4 leukemia): 219 nM
- GI50 (UACC-62 melanoma): 908 nM and 2110 nM
- TGI (UACC-62 melanoma): 6.93 µM and 12.6 µM
- GI50 (HCT-15 colon): 2260 nM and 2300 nM
- TGI (HCT-15 colon): 50 µM and 12.9 µM
- GI50 (SF-539 CNS): 642 nM and 428 nM
- TGI (SF-539 CNS): 1620 nM and 1870 nM
- GI50 (NCI-H460 lung): 1930 nM and 1280 nM
- TGI (NCI-H460 lung): 9.03 µM and 3.79 µM
- GI50 (T-47D breast): 492 nM and 224 nM
- TGI (T-47D breast): 2.61 µM and 4.21 µM
- GI50 (HOP-92 NSCLC): 81.7 nM and 131 nM
- TGI (HOP-92 NSCLC): 1.11 µM and 3.26 µM
- GI50 (TK-10 renal): 4.52 µM
- TGI (TK-10 renal): 22.6 µM
- GI50 (RXF 393 renal): 660 nM and 1760 nM
- TGI (RXF 393 renal): 2.15 µM and 12.6 µM
- GI50 (DU-145 prostate): 1880 nM and 1040 nM
- TGI (DU-145 prostate): 12.9 µM and 4.46 µM
- GI50 (KM12 colon): 1220 nM and 1920 nM
- TGI (KM12 colon): 5.89 µM and 13.4 µM
- GI50 (SNB-19 CNS): 7.61 µM and 9.99 µM
- TGI (SNB-19 CNS): 18.7 µM and 33.4 µM
- GI50 (LOX IMVI melanoma): 758 nM and 403 nM
- TGI (LOX IMVI melanoma): 4.22 µM and 2.61 µM
- GI50 (A498 renal): 8 µM and 2.48 µM
- TGI (A498 renal): 19.2 µM and 21.3 µM
- GI50 (HL-60(TB) leukemia): 158 nM and 243 nM
- GI50 (SK-MEL-2 melanoma): 1960 nM and 3600 nM
- GI50 (CAKI-1 renal): 108 nM and 594 nM
- GI50 (HOP-62 NSCLC): 5.47 µM and 26 µM
- TGI (HOP-62 NSCLC): 16.1 µM and > 100 µM
- GI50 (SW-620 colon): 378 nM and 978 nM
- GI50 (A549 NSCLC): 7.9 µM and 3.53 µM
- TGI (A549 NSCLC): 42.5 µM and 15.4 µM
- GI50 (OVCAR-8 ovarian): 619 nM and 376 nM
- GI50 (NCI/ADR-RES ovarian): 1790 nM and 1920 nM
- TGI (NCI/ADR-RES ovarian): 12.5 µM and 18.9 µM
- GI50 (UO-31 renal): 122 nM and 172 nM
- TGI (UO-31 renal): 1110 nM and 2170 nM
- GI50 (MDA-MB-435): 1440 nM and 1520 nM
- TGI (MDA-MB-435): 9.43 µM and 12.3 µM
- GI50 (MALME-3M melanoma): 1060 nM and 926 nM
- TGI (MALME-3M melanoma): 4.63 µM and 4.18 µM
- GI50 (IGROV1 ovarian): 310 nM and 550 nM
- GI50 (OVCAR-5 ovarian): 5.72 µM and 35.4 µM
- TGI (OVCAR-5 ovarian): 20.2 µM and > 100 µM
- GI50 (K-562 leukemia): 221 nM and 1060 nM
- GI50 (UACC-257 melanoma): 7.49 µM and 1.91 µM
- TGI (UACC-257 melanoma): 41 µM and 10.7 µM

SMILES: COc1ccc(-c2cc(-c3ccc(Nc4ccnc5cc(Cl)ccc45)cc3)[nH]c(=O)c2C#N)cc1
- TGI (M14 melanoma): > 100 µM
- TGI (786-0 renal): > 100 µM
- TGI (COLO 205 colon): > 100 µM
- TGI (PC-3 prostate): > 100 µM
- TGI (NCI-H226 lung): > 100 µM
- TGI (BT-549 breast): > 100 µM
- TGI (SF-295 CNS): > 100 µM
- TGI (MDA-MB-231 breast): > 100 µM
- TGI (RPMI-8226 leukemia): > 100 µM
- TGI (OVCAR-3 ovarian): > 100 µM
- TGI (U251 CNS): > 100 µM
- TGI (SK-OV-3 ovarian): > 100 µM
- TGI (HCT-116 colon): > 100 µM
- TGI (ACHN renal): > 100 µM
- TGI (HCC-2998 colon): > 100 µM
- TGI (SK-MEL-28 melanoma): > 100 µM
- TGI (NCI-H522 lung): > 100 µM
- TGI (SR leukemia): > 100 µM
- TGI (MCF7 breast): > 100000 nM
- TGI (OVCAR-4 ovarian): > 100 µM
- TGI (HS 578T breast): > 100 µM
- TGI (NCI-H23 lung): > 100 µM
- TGI (SF-268 CNS): > 100 µM
- TGI (EKVX NSCLC): > 100 µM
- TGI (MOLT-4 leukemia): > 100000 nM
- TGI (UACC-62 melanoma): > 100 µM
- TGI (HCT-15 colon): > 100 µM
- TGI (SF-539 CNS): > 100000 nM
- TGI (NCI-H460 lung): > 100 µM
- TGI (T-47D breast): > 100 µM
- TGI (HOP-92 NSCLC): > 100 µM
- TGI (TK-10 renal): > 100 µM
- TGI (RXF 393 renal): > 100 µM
- TGI (DU-145 prostate): > 100 µM
- TGI (KM12 colon): > 100 µM
- TGI (SNB-19 CNS): > 100 µM
- TGI (LOX IMVI melanoma): > 100 µM
- TGI (A498 renal): > 100 µM
- TGI (HL-60(TB) leukemia): > 100 µM
- TGI (SK-MEL-2 melanoma): > 100 µM
- TGI (CAKI-1 renal): > 100 µM
- TGI (HOP-62 NSCLC): > 100 µM
- TGI (SW-620 colon): > 100 µM
- TGI (SNB-75 CNS): > 100 µM
- TGI (A549 NSCLC): > 100 µM
- TGI (OVCAR-8 ovarian): > 100 µM
- TGI (NCI/ADR-RES ovarian): > 100 µM
- TGI (UO-31 renal): > 100000 nM
- TGI (MDA-MB-435): > 100 µM
- TGI (MALME-3M melanoma): > 100 µM
- TGI (IGROV1 ovarian): > 100 µM
- TGI (OVCAR-5 ovarian): > 100 µM
- TGI (K-562 leukemia): > 100 µM

— PubChem BioAssay (NCI)
